From US20250171423A1, “PHARMACEUTICAL COMPOUNDS FOR THE TREATMENT OF COMPLEMENT MEDIATED DISORDERS” (Achillion Pharmaceuticals, Inc., priority 2020, published 2025)

Target: T1, Human complement C1s enzyme (Homo sapiens, UniProt P09871)
T1 construct: purified from human serum, Complement Technology, Inc; purchased Complement Technology, Inc; host or cells: human serum
T1 sequence (P09871 438-688 limits assumed): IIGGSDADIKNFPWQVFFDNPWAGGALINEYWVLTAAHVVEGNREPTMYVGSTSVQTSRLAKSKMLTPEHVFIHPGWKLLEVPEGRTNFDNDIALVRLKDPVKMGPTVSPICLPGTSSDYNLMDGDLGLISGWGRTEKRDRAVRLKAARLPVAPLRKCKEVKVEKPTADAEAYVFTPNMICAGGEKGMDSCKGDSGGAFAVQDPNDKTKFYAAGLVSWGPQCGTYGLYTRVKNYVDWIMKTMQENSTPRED
T1 sequence (P09871 16-437 partner limits assumed): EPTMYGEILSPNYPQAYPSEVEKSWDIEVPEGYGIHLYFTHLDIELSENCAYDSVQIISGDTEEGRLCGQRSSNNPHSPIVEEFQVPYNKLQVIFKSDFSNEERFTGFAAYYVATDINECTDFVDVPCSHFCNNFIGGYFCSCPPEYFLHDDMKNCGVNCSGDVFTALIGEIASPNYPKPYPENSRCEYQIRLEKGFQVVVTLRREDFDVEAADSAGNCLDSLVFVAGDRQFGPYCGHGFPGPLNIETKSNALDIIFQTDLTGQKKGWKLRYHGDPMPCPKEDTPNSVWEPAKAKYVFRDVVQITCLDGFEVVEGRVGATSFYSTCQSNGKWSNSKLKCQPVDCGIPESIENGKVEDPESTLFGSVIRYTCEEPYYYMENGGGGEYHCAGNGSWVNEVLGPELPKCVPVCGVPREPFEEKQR
Test: Human C1s Enzyme Assay
Assay type: biochemical
Settings: human C1s 1.16 nM, 5 min preincubation, substrate Z-L-Lys-SBzl 100 μM, A405; read-out: C1s Protease Activity
How it was run: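 C1s purified from human serum (1.16 nM final) was preincubated with compound for 5 min at room temperature in 50 mM Tris, 1 M NaCl, pH 7.5. Z-L-Lys-SBzl and DTNB were then added at 100 μM each, and A405 was followed for 30 min. IC50 came from nonlinear regression of reaction rates.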

| SMILES | IC50 |
| --- | --- |
| C[C@@]12C[C@@H]1N(C(=O)CNC(=O)c1ccc(Oc3ccccc3)cc1)[C@H](C(=O)NS(=O)(=O)c1cc(C(=N)N)cs1)C2 [Compound 86, (1S,3S,5S)-N-((4-carbamimidoylthiophen-2-yl)sulfonyl)-5-methyl-2-((4-phenoxy-benzoyl)glycyl)-2-azabicyclo[3.1.0]hexane-3-carboxamide] | > 1000 nM |
| CC(C)(C)c1ccc(OCCCC(=O)NCC(=O)N2[C@H]3C[C@@]3(C)C[C@H]2C(=O)NCc2cc(C(=N)N)cs2)cc1 [Compound 87, (1S,3S,5S)-2-((4-(4-(tert-butyl)phenoxy)butanoyl)glycyl)-N-((4-carbamimidoyl-thiophen-2-yl)methyl)-5-methyl-2-azabicyclo[3.1.0]hexane-3-carboxamide] | < 100 nM |
| CC(CCOc1ccccc1)C(=O)NCC(=O)N1CC2(C[C@H]1C(=O)NCc1cc(C(=N)N)cs1)OCCO2 (stereo partly drawn) [Compound 88, (8S)-N-((4-carbamimidoylthiophen-2-yl)methyl)-7-((2-methyl-4-phenoxybutanoyl)glycyl)-1,4-dioxa-7-azaspiro[4.4]nonane-8-carboxamide] | < 100 nM |
| C[C@@]12C[C@@H]1N(C(=O)CNC(=O)c1ccc(Oc3ccccc3)cc1)[C@H](C(=O)OCc1cc(C(=N)N)cs1)C2 [Compound 89, (1S,3S,5S)-(4-carbamimidoylthiophen-2-yl)methyl 5-methyl-2-((4-phenoxybenzoyl)glycyl)-2-azabicyclo[3.1.0]hexane-3-carboxylate] | < 100 nM |
| CCCC(COc1ccccc1)CC(=O)NCC(=O)N1CC2(C[C@H]1C(=O)NCc1cc(C(=N)N)cs1)OCCO2 (stereo partly drawn) [Compound 90, (8S)-N-((4-carbamimidoylthiophen-2-yl)methyl)-7-((3-(phenoxymethyl)hexanoyl)glycyl)-1,4-dioxa-7-azaspiro[4.4]nonane-8-carboxamide] | < 100 nM |
| C[C@@]12C[C@@H]1N(C(=O)CNC(=O)c1ccc(Oc3ccc(C(F)(F)F)cc3)cc1)[C@H](C(=O)NCc1cc(C(=N)N)cs1)C2 [Compound 92, (1S,3S,5S)-N-((4-carbamimidoylthiophen-2-yl)methyl)-5-methyl-2-((4-(4-(trifluoro-methyl)phenoxy)benzoyl)glycyl)-2-azabicyclo[3.1.0]hexane-3-carboxamide] | 100 to 1000 nM |
| C[C@@]12C[C@@H]1N(C(=O)CNC(=O)c1ccc(Oc3ccccc3)cn1)[C@H](C(=O)NCc1cc(C(=N)N)cs1)C2 [Compound 93, (1S,3S,5S)-N-((4-carbamimidoylthiophen-2-yl)methyl)-5-methyl-2-((5-phenoxy-picolinoyl)glycyl)-2-azabicyclo[3.1.0]hexane-3-carboxamide] | < 100 nM |
| C[C@@]12C[C@@H]1N(C(=O)CNC(=O)c1ccc(Oc3cccnc3)cc1)[C@H](C(=O)NCc1cc(C(=N)N)cs1)C2 [Compound 94, (1S,3S,5S)-N-[(4-carbamimidoylthiophen-2-yl)methyl]-5-methyl-2-(2-{[4-(pyridin-3-yloxy)phenyl]formamido}acetyl)-2-azabicyclo[3.1.0]hexane-3-carboxamide] | < 100 nM |
| N=C(N)c1csc(CNC(=O)[C@@H]2C=CCN2C(=O)CNC(=O)CCCOc2ccc(S(F)(F)(F)(F)F)cc2)c1 [Compound 95] | 100 to 1000 nM |
| C[C@@]12C[C@@H]1N(C(=O)CNC(=O)CCCOc1ccc(S(F)(F)(F)(F)F)cc1)[C@H](C(=O)NCc1cc(C(=N)N)cs1)C2 [Compound 96, (1S,3S,5S)-N-((4-carbamimidoylthiophen-2-yl)methyl)-5-methyl-2-((4-(4-(pentafluoro-λ^6-sulfanyl)phenoxy)butanoyl)glycyl)-2-azabicyclo[3.1.0]hexane-3-carboxamide] | < 100 nM |
| CC(CCC(=O)NCC(=O)N1CC2(C[C@H]1C(=O)NCc1cc(C(=N)N)cs1)OCCO2)Oc1ccccc1 (stereo partly drawn) [Compound 97, (8S)-N-((4-carbamimidoylthiophen-2-yl)methyl)-7-((4-phenoxypentanoyl)glycyl)-1,4-dioxa-7-azaspiro[4.4]nonane-8-carboxamide] | < 100 nM |
| CS(=O)(=O)[C@@H]1C[C@@H](C(=O)NCc2cc(C(=N)N)cs2)N(C(=O)CNC(=O)CCCOc2ccccc2)C1 [Compound 98, (2S,4R)-N-((4-carbamimidoylthiophen-2-yl)methyl)-4-(methylsulfonyl)-1-((4-phenoxybutanoyl)glycyl)pyrrolidine-2-carboxamide] | < 100 nM |
| C[C@@H](NC(=O)[C@@H]1C[C@](F)(CF)CN1C(=O)CNC(=O)CCCOc1ccc(F)cc1)c1cc(C(=N)N)cs1 [Compound 99, (2S,4R)-N-[(1R)-1-(4-carbamimidoylthiophen-2-yl)ethyl]-4-fluoro-4-(fluoromethyl)-1-{2-[4-(4-fluorophenoxy)butanamido]acetyl}pyrrolidine-2-carboxamide] | < 100 nM |
| C[C@@]12C[C@@H]1N(C(=O)CNC(=O)COCCOCCNC(=O)COCCOCCNC(=O)CC[C@H](NC(=O)CCCCCCCCCCCCCCCCC(=O)O)C(=O)O)[C@H](C(=O)NCc1cc(C(=N)N)cs1)C2 [Compound 100, 17-{[(1S)-3-{[2-(2-{[(2-{2-[({2-[(1S,3S,5S)-3-{[(4-carbamimidoylthiophen-2-yl)methyl]-carbamoyl}-5-methyl-2-azabicyclo[3.1.0]hexan-2-yl]-2-oxoethyl}carbamoyl)methoxy]ethoxy}ethyl)-carbamoyl]methoxy}ethoxy)ethyl]carbamoyl}-1-carboxypropyl]-carbamoyl}heptadecanoic acid] | > 1000 nM |
| C[C@@]12C[C@@H]1N(C(=O)CN1Cc3cc(Oc4ccccc4)ccc3C1=O)[C@H](C(=O)NCc1cc(C(=N)N)cs1)C2 [Compound 101, (1S,3S,5S)-N-((4-carbamimidoylthiophen-2-yl)methyl)-5-methyl-2-(2-(1-oxo-5-phenoxyisoindolin-2-yl)acetyl)-2-azabicyclo[3.1.0]hexane-3-carboxamide] | < 100 nM |
| C[C@@]12C[C@@H]1N(C(=O)CNC(=O)c1ccc(Oc3ccccc3)cc1)[C@H](C(=O)NCc1cnc(N)s1)C2 [Compound 102, (1S,3S,5S)-N-[(2-amino-1,3-thiazol-5-yl)methyl]-5-methyl-2-{2-[(4-phenoxyphenyl)-formamido]acetyl}-2-azabicyclo[3.1.0]hexane-3-carboxamide] | 100 to 1000 nM |
| C[C@@]12C[C@@H]1N(C(=O)CNC(=O)c1ccc3c(c1)-c1ccccc1C3(F)F)[C@H](C(=O)NCc1cc(C(=N)N)cs1)C2 [Compound 103, (1S,3S,5S)-N-((4-carbamimidoylthiophen-2-yl)methyl)-2-((9,9-difluoro-9H-fluorene-3-carbonyl)glycyl)-5-methyl-2-azabicyclo[3.1.0]hexane-3-carboxamide] | < 100 nM |
| C[C@@H](NC(=O)[C@@H]1CC2(CN1C(=O)CNC(=O)CCCOc1ccc(F)cc1)OCCO2)c1cc(C(=N)N)cs1 [Compound 104, (S)-N-((R)-1-(4-carbamimidoylthiophen-2-yl)ethyl)-7-((4-(4-fluorophenoxy)butanoyl)-glycyl)-1,4-dioxa-7-azaspiro[4.4]nonane-8-carboxamide] | < 100 nM |
| C[C@@H](NC(=O)[C@@H]1C[C@@]2(CN1C(=O)CNC(=O)CCCOc1ccccc1)CC2(F)F)c1cc(C(=N)N)cs1 [Compound 105, (3S,6S)-N-((R)-1-(4-carbamimidoylthiophen-2-yl)ethyl)-1,1-difluoro-5-((4-phenoxy-butanoyl)glycyl)-5-azaspiro[2.4]heptane-6-carboxamide] | 100 to 1000 nM |
| CO[C@@H]1C[C@@H](C(=O)N[C@H](C)c2cc(C(=N)N)cs2)N(C(=O)CNC(=O)CCCOc2ccccc2)C1 [Compound 106, (2S,4R)-N-((R)-1-(4-carbamimidoylthiophen-2-yl)ethyl)-4-methoxy-1-((4-phenoxy-butanoyl)glycyl)pyrrolidine-2-carboxamide] | < 100 nM |
| C[C@@H](NC(=O)[C@@H]1C[C@@H](S(C)(=O)=O)CN1C(=O)CNC(=O)CCCOc1ccc(F)cc1)c1cc(C(=N)N)cs1 [Compound 107, (2S,4R)-N-((R)-1-(4-carbamimidoylthiophen-2-yl)ethyl)-1-((4-(4-fluorophenoxy)-butanoyl)glycyl)-4-(methylsulfonyl)pyrrolidine-2-carboxamide] | < 100 nM |
| C[C@@H](NC(=O)[C@@H]1C[C@@H](OC(F)F)CN1C(=O)CNC(=O)CCCOc1ccc(F)cc1)c1cc(C(=N)N)cs1 [Compound 108, (2S,4R)-N-((R)-1-(4-carbamimidoylthiophen-2-yl)ethyl)-4-(difluoromethoxy)-1-((4-(4-fluorophenoxy)butanoyl)glycyl)pyrrolidine-2-carboxamide] | < 100 nM |
| N=C(N)c1csc(CNC(=O)[C@@H]2C[C@](F)(CN)CN2C(=O)CNC(=O)CCCOc2ccccc2)c1 [Compound 109, (2S,4S)-4-(aminomethyl)-N-((4-carbamimidoylthiophen-2-yl)methyl)-4-fluoro-1-((4-phenoxybutanoyl)glycyl)pyrrolidine-2-carboxamide] | < 100 nM |
